# Values quoted from earlier work as cited in US20100125094A1, “PY[…] NICOTINIC ACETYLCHOLINE RECEPTORS” (AUSPEX PHARMACEUTICALS, INC., priority 2008, published 2010).
smiles,measurement,setting,value
"CN1CCCC1c1cccnc1 (centres unmarked) [Nicotine, 3-(1-methyl-pyrrolidin-2-yl)-pyridine]",half life of nicotine in the body,in the body,around two
same,time for nicotine to reach the brain,"when inhaled, on average",about seven
